Measured values from patent US12485169B2, “Compounds” (GREY WOLF THERAPEUTICS LIMITED, priority 2018, dated 2025).

The compounds below were run against T1, Purified ERAP1 (37-941)-10His (ERAP1) (Homo sapiens, UniProt Q9NZ08) (assay: ERAP1 mediated hydrolysis of an amide substrate (10-mer inhibition assay), biochemical system). Settings: 10-mer substrate, 23° C., 1 h, excitation 279 nm / emission 355 nm; read-out: IC50 vs Decapeptide WRVYEKC(Dnp)ALK-acid (where Dnp is Dinitrophenyl maleimide) (10-mer).
T1 construct: Purified ERAP1 (37-941)-10His (ERAP1)
T1 sequence (Q9NZ08 37-941): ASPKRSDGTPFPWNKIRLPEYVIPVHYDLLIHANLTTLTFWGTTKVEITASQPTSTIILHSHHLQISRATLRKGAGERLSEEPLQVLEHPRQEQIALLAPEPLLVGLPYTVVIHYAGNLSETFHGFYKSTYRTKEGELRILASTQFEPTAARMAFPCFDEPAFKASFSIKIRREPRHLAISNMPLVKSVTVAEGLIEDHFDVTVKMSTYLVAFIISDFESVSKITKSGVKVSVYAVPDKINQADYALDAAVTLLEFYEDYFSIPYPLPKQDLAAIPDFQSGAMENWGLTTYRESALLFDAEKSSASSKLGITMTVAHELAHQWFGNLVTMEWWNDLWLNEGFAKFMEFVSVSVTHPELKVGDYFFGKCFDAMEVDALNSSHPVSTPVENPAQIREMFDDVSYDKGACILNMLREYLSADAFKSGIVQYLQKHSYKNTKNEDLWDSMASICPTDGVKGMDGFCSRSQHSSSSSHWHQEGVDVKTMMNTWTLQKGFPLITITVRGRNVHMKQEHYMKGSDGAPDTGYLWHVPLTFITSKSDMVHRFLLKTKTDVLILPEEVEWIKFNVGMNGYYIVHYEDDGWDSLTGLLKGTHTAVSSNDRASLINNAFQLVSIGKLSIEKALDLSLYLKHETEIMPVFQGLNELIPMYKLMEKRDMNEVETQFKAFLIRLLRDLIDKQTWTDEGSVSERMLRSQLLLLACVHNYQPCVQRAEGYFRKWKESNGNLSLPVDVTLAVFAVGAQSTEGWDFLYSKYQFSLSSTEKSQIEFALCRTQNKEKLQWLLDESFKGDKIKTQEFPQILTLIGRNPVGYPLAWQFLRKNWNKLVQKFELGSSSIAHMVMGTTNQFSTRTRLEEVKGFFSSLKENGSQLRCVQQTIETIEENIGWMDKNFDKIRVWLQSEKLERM

IC50, < 5000 nM:
CCc1ccc(C(=O)O)cc1S(=O)(=O)Nc1cc(C(F)(F)F)ccc1N1CC(C)(O)C1 [Example 270, 4-ethyl-3-(N-(2-(3-hydroxy-3-methylazetidin-1-yl)-5-(trifluoromethyl)phenyl)sulfamoyl)benzoic acid]
O=C(O)c1ccc(-n2cccn2)c(S(=O)(=O)Nc2cc(C(F)(F)F)ccc2N2CCCCC2)c1 [Example 271, 3-(N-(2-(piperidin-1-yl)-5-(trifluoromethyl)phenyl)sulfamoyl)-4-(pyrazol-1-yl)benzoic acid]

IC50, < 500 nM:
CCc1ccc(C(=O)O)cc1S(=O)(=O)Nc1cc(-n2cnnn2)ccc1N1CC(C)(O)C1 [Example 257, 4-ethyl-3-(N-(2-(3-hydroxy-3-methylazetidin-1-yl)-5-(tetrazol-1-yl)phenyl)sulfamoyl)benzoic acid]
COc1ccc(C(=O)O)cc1S(=O)(=O)Nc1cc(C#N)ccc1N1CCC[C@@H](O)C1 [Example 258, I-3-(N-(5-cyano-2-(3-hydroxypiperidin-1-yl)phenyl)sulfamoyl)-4-methoxybenzoic acid]
COc1ccc(C(=O)O)cc1S(=O)(=O)Nc1cc(-c2nn[nH]n2)ccc1N1CCCCC1 [Example 259, 4-methoxy-3-(N-(2-(piperidin-1-yl)-5-(tetrazol-5-yl)phenyl)sulfamoyl)benzoic acid]
CCc1ccc(C(=O)O)cc1S(=O)(=O)Nc1cc(C#N)ccc1N1CCC[C@@H](O)C1 [Example 260, I-3-(N-(5-cyano-2-(3-hydroxypiperidin-1-yl)phenyl)sulfamoyl)-4-ethylbenzoic acid]
CCc1ccc(C(=O)O)cc1S(=O)(=O)Nc1cc(-c2nn[nH]n2)ccc1N1CCCCC1 [Example 261, 4-ethyl-3-(N-(2-(piperidin-1-yl)-5-(tetrazol-5-yl)phenyl)sulfamoyl)benzoic acid]
CCc1ccc(C(=O)O)cc1S(=O)(=O)Nc1cc(S(C)(=O)=O)ccc1N1CCC[C@@H](F)C1 [Example 262, I-4-ethyl-3-(N-(2-(3-fluoropiperidin-1-yl)-5-(methylsulfonyl)phenyl)sulfamoyl)benzoic acid]
CCc1ccc(C(=O)O)cc1S(=O)(=O)Nc1cc(C#N)ccc1N1CCC[C@H](O)C1 [Example 263, (S)-3-(N-(5-cyano-2-(3-hydroxypiperidin-1-yl)phenyl)sulfamoyl)-4-ethylbenzoic acid]
COc1ccc(C(=O)O)cc1S(=O)(=O)Nc1cc(C#N)ccc1N1CCC[C@H](O)C1 [Example 264, (S)-3-(N-(5-cyano-2-(3-hydroxypiperidin-1-yl)phenyl)sulfamoyl)-4-methoxybenzoic acid]
COc1ccc(C(=O)O)cc1S(=O)(=O)Nc1cc(-n2cnnn2)ccc1N1CCC[C@@H](F)C1 [Example 265, I-3-(N-(2-(3-fluoropiperidin-1-yl)-5-(tetrazol-1-yl)phenyl)sulfamoyl)-4-methoxybenzoic acid]
CCc1ccc(C(=O)O)cc1S(=O)(=O)Nc1cc(-n2cnnn2)ccc1N1CCC[C@@H](F)C1 [Example 266, I-4-ethyl-3-(N-(2-(3-fluoropiperidin-1-yl)-5-(tetrazol-1-yl)phenyl)sulfamoyl)benzoic acid]
O=C(O)c1ccc(C2CC2)c(S(=O)(=O)Nc2cc(C(F)(F)F)ccc2N2CCCCC2)c1 [Example 267, 4-cyclopropyl-3-(N-(2-(piperidin-1-yl)-5-(trifluoromethyl)phenyl)sulfamoyl)benzoic acid]
CCCCc1ccc(C(=O)O)cc1S(=O)(=O)Nc1cc(C(F)(F)F)ccc1N1CCCCC1 [Example 268, 4-butyl-3-(N-(2-(piperidin-1-yl)-5-(trifluoromethyl)phenyl)sulfamoyl)benzoic acid]
COc1ccc(C(=O)O)cc1S(=O)(=O)Nc1cc(S(C)(=O)=O)ccc1N1CCC[C@@H](F)C1 [Example 269, I-3-(N-(2-(3-fluoropiperidin-1-yl)-5-(methylsulfonyl)phenyl)sulfamoyl)-4-methoxybenzoic acid]
O=C(O)c1ccc(C2CCO2)c(S(=O)(=O)Nc2cc(C(F)(F)F)ccc2N2CCCCC2)c1 (centres unmarked) [Example 272, 4-(oxetan-2-yl)-3-(N-(2-(piperidin-1-yl)-5-(trifluoromethyl)phenyl)sulfamoyl)benzoic acid]
CCc1ccc(C(=O)O)cc1S(=O)(=O)Nc1cc(-c2cn(C)nn2)ccc1N1CCCCC1 [Example 273, 4-ethyl-3-(N-(5-(1-methyl-1,2,3-triazol-4-yl)-2-(piperidin-1-yl)phenyl)sulfamoyl)benzoic acid]
CCc1ccc(C(=O)O)cc1S(=O)(=O)Nc1cc(-c2cnnn2C)ccc1N1CCCCC1 [Example 274, 4-ethyl-3-(N-(5-(1-methyl-1,2,3-triazol-5-yl)-2-(piperidin-1-yl)phenyl)sulfamoyl)benzoic acid]
CCc1ccc(C(=O)O)cc1S(=O)(=O)Nc1cc(-c2cncs2)ccc1N1CCCCC1 [Example 275, 4-ethyl-3-(N-(2-(piperidin-1-yl)-5-(thiazol-5-yl)phenyl)sulfamoyl)benzoic acid]
CCc1ccc(C(=O)O)cc1S(=O)(=O)Nc1cc(-c2cc[nH]n2)ccc1N1CCCCC1 [Example 276, 4-ethyl-3-(N-(2-(piperidin-1-yl)-5-(pyrazol-3-yl)phenyl)sulfamoyl)benzoic acid]
CCc1ccc(C(=O)O)cc1S(=O)(=O)Nc1cc(-c2cnn(C)c2)ccc1N1CCCCC1 [Example 277, 4-ethyl-3-(N-(5-(1-methylpyrazol-4-yl)-2-(piperidin-1-yl)phenyl)sulfamoyl)benzoic acid]
CCc1ccc(C(=O)O)cc1S(=O)(=O)Nc1cc(-c2nncs2)ccc1N1CCCCC1 [Example 278, 4-ethyl-3-(N-(2-(piperidin-1-yl)-5-(1,3,4-thiadiazol-2-yl)phenyl)sulfamoyl)benzoic acid]
CCc1ccc(C(=O)O)cc1S(=O)(=O)Nc1cc(-c2cnoc2C)ccc1N1CCCCC1 [Example 279, 4-ethyl-3-(N-(5-(5-methylisoxazol-4-yl)-2-(piperidin-1-yl)phenyl)sulfamoyl)benzoic acid]
CCc1ccc(C(=O)O)cc1S(=O)(=O)Nc1cc(-c2ccn(C)n2)ccc1N1CCCCC1 [Example 280, 4-ethyl-3-(N-(5-(1-methylpyrazol-3-yl)-2-(piperidin-1-yl)phenyl)sulfamoyl)benzoic acid]
CCc1ccc(C(=O)O)cc1S(=O)(=O)Nc1cc(-c2ccnn2C)ccc1N1CCCCC1 [Example 281]
CCc1ccc(C(=O)O)cc1S(=O)(=O)Nc1cc(-c2cnc(C)s2)ccc1N1CCCCC1 [Example 282, 4-ethyl-3-(N-(5-(2-methylthiazol-5-yl)-2-(piperidin-1-yl)phenyl)sulfamoyl)benzoic acid]
CCc1ccc(C(=O)O)cc1S(=O)(=O)Nc1cc(-n2cnnn2)ccc1N1CC(O)C1 [Example 283, 4-ethyl-3-(N-(2-(3-hydroxyazetidin-1-yl)-5-(tetrazol-1-yl)phenyl)sulfamoyl)benzoic acid]
CCc1ccc(C(=O)O)cc1S(=O)(=O)Nc1cc(-c2ccns2)ccc1N1CCCCC1 [Example 286, 4-ethyl-3-(N-(5-(isothiazol-5-yl)-2-(piperidin-1-yl)phenyl)sulfamoyl)benzoic acid]
CCc1ccc(C(=O)O)cc1S(=O)(=O)Nc1cc(-c2cncn2C)ccc1N1CCCCC1 [Example 287, 4-ethyl-3-(N-(5-(1-methylimidazol-5-yl)-2-(piperidin-1-yl)phenyl)sulfamoyl)benzoic acid]
CCc1ccc(C(=O)O)cc1S(=O)(=O)Nc1cc(-c2ncnn2C)ccc1N1CCCCC1 [Example 288, 4-ethyl-3-(N-(5-(1-methyl-1,2,4-triazol-5-yl)-2-(piperidin-1-yl)phenyl)sulfamoyl)benzoic acid]
CCc1ccc(C(=O)O)cc1S(=O)(=O)Nc1cc(-c2ncco2)ccc1N1CCCCC1 [Example 289, 4-ethyl-3-(N-(5-(oxazol-2-yl)-2-(piperidin-1-yl)phenyl)sulfamoyl)benzoic acid]
CCc1ccc(C(=O)O)cc1S(=O)(=O)Nc1cc(-c2cnccn2)ccc1N1CCCCC1 [Example 290, 4-ethyl-3-(N-(2-(piperidin-1-yl)-5-(pyrazin-2-yl)phenyl)sulfamoyl)benzoic acid]
CCc1ccc(C(=O)O)cc1S(=O)(=O)Nc1cc(-c2c(C)noc2C)ccc1N1CCCCC1 [Example 291, 3-(N-(5-(3,5-dimethylisoxazol-4-yl)-2-(piperidin-1-yl)phenyl)sulfamoyl)-4-ethylbenzoic acid]
CCc1ccc(C(=O)O)cc1S(=O)(=O)Nc1cc(-c2nnc(C)o2)ccc1N1CCCCC1 [Example 292, 4-ethyl-3-(N-(5-(5-methyl-1,3,4-oxadiazol-2-yl)-2-(piperidin-1-yl)phenyl)sulfamoyl)benzoic acid]
CCc1ccc(C(=O)O)cc1S(=O)(=O)Nc1cc(-c2cccnn2)ccc1N1CCCCC1 [Example 293, 4-ethyl-3-(N-(2-(piperidin-1-yl)-5-(pyridazin-3-yl)phenyl)sulfamoyl)benzoic acid]
CCc1ccc(C(=O)O)cc1S(=O)(=O)Nc1cc(C(F)(F)F)c(Br)cc1N1CCCCC1 [Example 294, 3-(N-(4-bromo-2-(piperidin-1-yl)-5-(trifluoromethyl)phenyl)sulfamoyl)-4-ethylbenzoic acid]
N#Cc1ccc(N2CCCCC2)c(NS(=O)(=O)c2cc(C(=O)O)ccc2C2CC2)c1 [Example 295, 3-(N-(5-cyano-2-(piperidin-1-yl)phenyl)sulfamoyl)-4-cyclopropylbenzoic acid]
CS(=O)(=O)c1ccc(N2CCCCC2)c(NS(=O)(=O)c2cc(C(=O)O)ccc2C2CC2)c1 [Example 296, 4-cyclopropyl-3-(N-(5-(methylsulfonyl)-2-(piperidin-1-yl)phenyl)sulfamoyl)benzoic acid]
